Measured values reported in PubChem BioAssay AID1159560 (GlaxoSmithKline (GSK), 2015).
Activity calls are given as the source filed them. The rule behind the calls is not given here.

Each compound was assayed on Leishmania donovani growth inhibition (assay: antileishmanial activity against L. donovani parasites (AID 1159560);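 note: parasites exposed to compound for 72 h before the viability read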).
`COc1ccccc1CNc1cc(C2CC2)nc(-c2nccn2C)n1` was tested, and the IC50 was 1 µM.
`O=C(NCCNc1noc(-c2ccc([N+](=O)[O-])cc2)n1)c1ccc(Cl)cc1` was tested, and the IC50 was > 50 µM (inactive).
`COc1cc(OC)cc(C(=O)N[C@@H](CC(C)C)C(=O)NC2(C#N)CC2)c1` was tested, and the IC50 was > 50 µM (inactive).
With `Oc1c(-c2n[nH]c(Cc3ccc(Cl)cc3)n2)ncc2cccnc12` the IC50 was 0.25 µM.
For `Cc1ccc(CNC2CCN(C[C@@H]3Cn4c(=O)ccc5ccc(=O)n3c54)CC2)cc1F`, the IC50 was > 50 µM (inactive).
Work on `O=C1c2cnc(N3CCCC3)nc2CN1c1ccc2c(c1)OCO2` yielded an IC50 of 6.3 µM.
`CCC(=O)N1N=C(c2ccc3c(c2)CCCC3)Sc2c1ncn2C(=O)CC` gave an IC50 of 25 µM.
Compound `COc1ccc(C2CC(c3ccc(NS(C)(=O)=O)cc3)=NN2C(=O)c2cccs2)cc1OC` (centres undefined) has an IC50 of 13 µM.
With `CC(C)(C)CC(=O)NCCc1csc(-c2ccc(F)cc2)n1` the IC50 was > 50 µM (inactive).
`COc1ccc(S(=O)(=O)Nc2ccc(C(=O)Nc3nc(-c4ccccn4)cs3)cc2)cc1` was tested, and the IC50 was 1 µM.
`COc1ccc2ncc(=O)n(CCN3CCOC(CNCc4ccc(C(F)(F)F)cc4F)C3)c2n1` (centres undefined) showed an IC50 of 40 µM.
Compound `CC(=O)Nc1ccc(-c2noc(CC3CCCN(Cc4cccc(F)c4C)C3)n2)cc1` (centres undefined) has an IC50 of 40 µM.
In the case of `O=C(CC1(O)C(=O)N(Cc2cccs2)c2ccc(Br)cc21)c1cccnc1` (centres undefined), the IC50 is reported as > 50 µM (inactive).
In the case of `NC(=O)c1ncc(N[C@@H]2CCCNC2)nc1Nc1cccc(Cl)c1`, the IC50 is reported as 2.5 µM.
`CC(C)(C)CC(=O)NCc1noc(COc2ccccc2)n1` was tested, and the IC50 was > 50 µM (inactive).
`CCCCN(C(=O)c1ccc(NC(=O)C(C)C)cc1)c1ccccc1` gave an IC50 of 1 µM.
`COc1ccc(-c2csc(NC(=O)c3ccc([N+](=O)[O-])s3)n2)cc1` gave an IC50 of 3.2 µM.
`COc1ccc(OC)c2c(=O)c(Cc3ccccc3)c(C)[nH]c12` was tested, and the IC50 was 0.4 µM.
For `Cc1cnc(Nc2cc(Cc3ccccc3)nc(NC3CCC(O)CC3)n2)s1` (centres undefined), the IC50 was 0.79 µM.
`CC(C)c1sc(Cl)nc1C(=O)NCCc1nc(C(=O)Nc2ccc3c(c2)OCO3)cs1` showed an IC50 of 4 µM.
In the case of `Clc1ccc(C(CC2CCCCO2)Cn2cncn2)c(Cl)c1` (centres undefined), the IC50 is reported as 25 µM.
For `COc1ccc(-c2nc3ncccc3o2)cc1NC(=O)c1cccs1`, the IC50 was 5 µM.
With `CC(c1cc(Cl)cc(Cl)c1)N(C)c1ncc2c(N)nc(N)nc2n1` (centres undefined) the IC50 was 0.79 µM.
`COc1ccccc1-n1c(SCC(=O)Nc2ccc3c(c2)OCO3)nc2c(c1=O)SCC2` gave an IC50 of 10 µM.
`Cc1cc(C)c(C#N)c(SCC(=O)c2ccc3c(c2)OCO3)n1` was tested, and the IC50 was > 50 µM (inactive).
For `Cc1cc(N(C)C)nc2ccc(Cc3cnc(N)nc3N)cc12`, the IC50 was > 50 µM (inactive).
With `COc1cc(-c2noc(CC#N)n2)ccc1OC(F)F` the IC50 was > 50 µM (inactive).
In the case of `CCCN1CCN(Cc2ccc(S(=O)(=O)Nc3cccc(C)c3)cc2)CC1`, the IC50 is reported as 25 µM.
With `N#Cc1cc(N2CCCC2=O)ccc1Sc1ccccc1CO` the IC50 was > 50 µM (inactive).
Compound `O=C(CN(Cc1ccccn1)Cc1ccccn1)NC1Cc2ccccc2C1` has an IC50 of 13 µM.
`O=[N+]([O-])c1ccc(-c2nnn(-c3ccc(Cl)cc3)n2)o1` showed an IC50 of 6.3 µM.
With `O=c1[nH]c(NCCCNCc2cc(Br)cc(Br)c2)nc2ccsc12` the IC50 was 16 µM.
For `COc1ccc(S(=O)(=O)NCc2ccc(-c3ccc(CN(C)CCO)cc3)cc2)cc1`, the IC50 was > 50 µM (inactive).
`O=c1[nH]c(C=Cc2cccc(OCCOc3ccccc3)c2)nc(O)c1[N+](=O)[O-]` was tested, and the IC50 was > 50 µM (inactive).
`c1ccc2[nH]c(-c3ccc(N4CCCC4)nc3)nc2c1` showed an IC50 of 5 µM.
In the case of `Cc1ccc(C)c(-n2nnnc2Sc2nc([N+](=O)[O-])nn2C)c1`, the IC50 is reported as > 50 µM (inactive).
`OC[C@@H](Nc1nccc(-c2c(-c3ccc(F)cc3)ncn2C2CCNCC2)n1)c1ccccc1` was tested, and the IC50 was > 50 µM (inactive).
In the case of `O=c1cc(NCCCNCc2cc(C(F)(F)F)cs2)[nH]c2ccccc12`, the IC50 is reported as > 50 µM (inactive).
Work on `COc1ccc2ncc(Cl)c(CCN3CC[C@@H](NCc4cc5c(cn4)OCS5)[C@H](O)C3)c2n1` yielded an IC50 of 10 µM.
`Cc1cc(C#N)c([N+](=O)[O-])cc1Br` gave an IC50 of 25 µM.
For `Cc1sc(C)c(C(F)(F)F)c1CNCCCNc1cc(=O)c2ccccc2[nH]1`, the IC50 was > 50 µM (inactive).
For `Cc1nccn1C1CCCN(C(=O)c2cc3c(F)cccc3s2)C1` (centres undefined), the IC50 was 5 µM.
In the case of `O=C1CCCCCC1(Cc1cnc[nH]1)c1ccc(Cl)cc1Cl` (centres undefined), the IC50 is reported as > 50 µM (inactive).
`Cc1cc2nc(CN(C)Cc3ncccc3C)[nH]c2cc1C` was tested, and the IC50 was 5 µM.
Work on `COc1cc(Nc2nccc(Nc3onc(C)c3C)n2)cc(S(=O)(=O)C2CCOCC2)c1` yielded an IC50 of 40 µM.
`Cc1cccc(NS(=O)(=O)c2cnc3sc(C)cn3c2=O)c1` was tested, and the IC50 was > 50 µM (inactive).
Work on `COCc1cnc2c(c1SCc1c(F)cccc1Cl)c(=O)n(C)c(=O)n2C` yielded an IC50 of 4 µM.
In the case of `O=c1ccn(-c2ccc([N+](=O)[O-])cc2Cl)c2ccc(F)cc12`, the IC50 is reported as > 50 µM (inactive).
In the case of `CC(C)(C)Nc1nc(-c2ccccn2)nc2ccccc12`, the IC50 is reported as 6.3 µM.
In the case of `O=C(C1CCCCC1)N1CCN(c2nnc(-c3ccccc3)c3ccccc23)CC1`, the IC50 is reported as > 50 µM (inactive).
`c1ccc(-c2nc(NCc3ccco3)c3ccccc3n2)nc1` gave an IC50 of 3.2 µM.
With `O=[N+]([O-])c1ccc(C2=CC(c3ccccc3)=NCCN2)cc1` the IC50 was > 50 µM (inactive).
`N#Cc1c(Oc2cccc(Cl)c2)cccc1[N+](=O)[O-]` gave an IC50 of 7.9 µM.
In the case of `COc1ccc2ncc(F)c(NC(=O)C3(O)CCC(NCc4ccc5c(c4)OCCO5)CC3)c2n1` (centres undefined), the IC50 is reported as 40 µM.
Work on `Cc1ccc(NC(C)C(=O)Nc2ccc(C#N)cc2)cc1S(=O)(=O)N1CCCCC1` (centres undefined) yielded an IC50 of 0.79 µM.
`O=c1[nH]ccc2ccc(-c3ccncc3)cc12` was tested, and the IC50 was > 50 µM (inactive).
`O=C1COC(c2ccccc2)(c2ccccc2)CN1C1CCN(Cc2ccc(-n3ccnc3)cc2)CC1` showed an IC50 of 32 µM.
In the case of `CN(Cc1ccc(C(N)=O)cc1)C(c1ccc(F)cc1)c1cccnc1` (centres undefined), the IC50 is reported as > 50 µM (inactive).
For `O=C(Cn1cnc2cc([N+](=O)[O-])ccc2c1=O)NCCc1ccc(Cl)cc1Cl`, the IC50 was > 50 µM (inactive).
`Cc1ccc(Nc2nc(-c3ccccn3)cc(N3CCCC(O)C3)n2)cc1` (centres undefined) gave an IC50 of 2 µM.
For `O=C(CSc1ccc(F)cc1)N[C@@H](Cc1cnc[nH]1)C(=O)NCCc1ccccc1`, the IC50 was > 50 µM (inactive).
Compound `Cn1ccnc1-c1nc(NCc2ccccc2Cl)cc(C2CC2)n1` has an IC50 of 1.6 µM.
Work on `CC(=O)Nc1ccc(-c2cnc(N)c(-c3nc4ccc(F)cc4[nH]3)c2)cc1` yielded an IC50 of 6.3 µM.
For `Cc1[nH]nc(C(F)(F)F)c1NC(=O)CCn1cc(Cl)c([N+](=O)[O-])n1`, the IC50 was > 50 µM (inactive).
Work on `Cn1nc(C(=O)N2CCc3ccccc32)c2c1CCS(=O)(=O)C2` yielded an IC50 of 4 µM.
Work on `O=C(N[C@H](CO)c1ccccc1)c1ccc(-c2c[nH]c3nccc(C(F)(F)F)c23)s1` yielded an IC50 of 32 µM.
Compound `O=C(c1ccc(O)c(Cl)c1)N1CCN(c2cnccn2)CC1` has an IC50 of 0.32 µM.
With `CCN(CC)c1ccc(S(=O)(=O)N(CC)CC)c2nonc12` the IC50 was 6.3 µM.
For `COc1ccc2nccc([C@H](O)CN3CC[C@H](NC(=O)c4ccc(Br)cc4)[C@@H](O)C3)c2n1`, the IC50 was 3.2 µM.
For `Cn1nccc1-c1cc(OC(CN)c2ccccc2)cnc1-c1ccco1` (centres undefined), the IC50 was > 50 µM (inactive).
`CCOc1ccccc1C(=O)Nc1nnc(-c2ccc3c(c2)OCO3)s1` showed an IC50 of 0.79 µM.
In the case of `O=C(NC1CCN(C2Cc3ccc(NS(=O)(=O)c4cc(F)cc(F)c4)cc3C2)CC1)C1CC1` (centres undefined), the IC50 is reported as 25 µM.
For `CCC(CC)C(=O)Nc1cccc(C(=O)Nc2nnc(C3CCCCC3)s2)c1`, the IC50 was > 50 µM (inactive).
`N#Cc1ccccc1S(=O)(=O)N1CCN(C(=O)CNC(=O)c2ccc3c(c2)OCO3)CC1` was tested, and the IC50 was 0.63 µM.
`Cc1cc(C)n(-c2nc(NC(C)(C)C)nc(N3CCOCC3)n2)n1` showed an IC50 of 6.3 µM.
`CC(C)Oc1ccc(C(=O)Nc2ccc(N3CCOCC3)c(Cl)c2)cc1` was tested, and the IC50 was > 50 µM (inactive).
In the case of `CCOc1ccc(CC(=O)N2c3ccccc3CC2C(=O)NC)cc1` (centres undefined), the IC50 is reported as > 50 µM (inactive).
For `CCCCn1c(=O)c2c(N)onc2n(CCCC)c1=O`, the IC50 was > 50 µM (inactive).
In the case of `CN1CCN(c2nc(-c3ccc(Cl)cc3)c3c(N)n(C)nc3n2)CC1`, the IC50 is reported as > 50 µM (inactive).
For `Cc1cc(Br)cc(C(=O)c2c(C(C)C)c(=O)[nH]c(=O)n2Cc2ccnc(N)c2)c1`, the IC50 was > 50 µM (inactive).
`CC(=O)Nc1ccc(-c2ccnc(Nc3cccc(C#N)c3)n2)cc1` showed an IC50 of 40 µM.
`COc1ccc(Oc2ccc(C(C)N(C)c3ncc4c(N)nc(N)nc4n3)cc2)cc1` (centres undefined) was tested, and the IC50 was 0.04 µM.
With `Cc1[nH]n2c(=O)c3c(nc2c1-c1ccc(Br)cc1)CCCC3` the IC50 was 10 µM.
In the case of `Cn1cc(CN2CCN(c3ccc4c(c3)CCN(C(=O)[C@H]3C[C@@H]3c3ccccc3)CC4)CC2)cn1`, the IC50 is reported as 0.63 µM.
With `COCc1cc(Nc2ccc(Cl)cc2)nc(-c2ccccn2)n1` the IC50 was 2.5 µM.
With `Cc1cc(Br)sc1CNCCCNc1cc(=O)c2ccccc2[nH]1` the IC50 was > 50 µM (inactive).
`CC1CCCCN1C(=O)NCCc1coc(-c2ccc(F)cc2)n1` (centres undefined) was tested, and the IC50 was > 50 µM (inactive).
For `CS(=O)(=O)c1ccc(Nc2nccc(-c3cnn4ncccc34)n2)cc1`, the IC50 was 0.79 µM.
For `CCOc1ccc(NC(=O)c2ccc(NC(=O)NC3CCCCC3)cc2)cc1`, the IC50 was > 50 µM (inactive).
`CC(C)c1cc(C(=O)N2CCCC(c3cc4ncccc4[nH]3)C2)on1` (centres undefined) was tested, and the IC50 was > 50 µM (inactive).
For `Cc1ccc(NC(=O)c2ccc(Cl)c(NC(=O)c3ccc([N+](=O)[O-])cc3)c2)cc1`, the IC50 was > 50 µM (inactive).
In the case of `CC1CN(S(=O)(=O)c2ccc(NC(=O)c3cc(C4CC4)nc4c3cnn4C(C)C)cc2)CC(C)O1` (centres undefined), the IC50 is reported as 20 µM.
Compound `c1ccc(Nc2nc3ccccc3[nH]2)nc1` has an IC50 of 25 µM.
In the case of `COc1cc(OC)cc(C(NS(=O)(=O)c2ccc(Cl)c(C(F)(F)F)c2)c2nccn2C)c1` (centres undefined), the IC50 is reported as 10 µM.
For `Cc1[nH]n2c(=O)c3c(nc2c1-c1ccc(Cl)cc1)CCCC3`, the IC50 was 1.3 µM.
`CC1(Oc2cncc(Cl)c2)CCN(Cc2cc3ccccc3[nH]2)C1` (centres undefined) was tested, and the IC50 was > 50 µM (inactive).
Compound `CCNc1cc(-c2ccccn2)nc(Nc2ccc(OC)cc2)n1` has an IC50 of 1.6 µM.
For `CS(=O)(=O)c1ccccc1C(=O)N(Cc1ccccc1)c1ccccc1`, the IC50 was 16 µM.
`Cc1nc2c(-c3nc(-c4ccc(N)cc4)n[nH]3)cccn2c1C` was tested, and the IC50 was 3.2 µM.
For `Cc1ccccc1CNC(=O)CN(Cc1ccccn1)Cc1ccccn1`, the IC50 was 10 µM.
`Cc1c(C(=O)NCCCCn2ccnc2)oc2c(C)cccc12` was tested, and the IC50 was > 50 µM (inactive).
With `O=C(c1ccc(OCCCc2cnc[nH]2)cc1)C1CC1` the IC50 was > 50 µM (inactive).
For `CN(C)Cc1ccc(-c2ccc(S(=O)(=O)NCC3CCCO3)c(F)c2)cc1` (centres undefined), the IC50 was > 63 µM (inactive).
For `O=C(Nc1ccc(Br)cn1)c1ccc(Cn2cnc([N+](=O)[O-])n2)cc1`, the IC50 was > 50 µM (inactive).
